According to patent US20090270450A1, “CHEMICAL COMPOUNDS” (ASTRAZENECA AB, priority 2006, published 2009):

Molecular target: T1, His-tagged kinase domain of CSF-1R (amino acids 568-912) (Homo sapiens, UniProt P07333)
T1 construct: The His-tagged kinase domain of CSF-1R (i.e., amino acids 568-912, GeneBank ID NM_005211); His; made in house; host or cells: baculovirus infected SF+Express insect cells
T1 sequence (P07333 568-912): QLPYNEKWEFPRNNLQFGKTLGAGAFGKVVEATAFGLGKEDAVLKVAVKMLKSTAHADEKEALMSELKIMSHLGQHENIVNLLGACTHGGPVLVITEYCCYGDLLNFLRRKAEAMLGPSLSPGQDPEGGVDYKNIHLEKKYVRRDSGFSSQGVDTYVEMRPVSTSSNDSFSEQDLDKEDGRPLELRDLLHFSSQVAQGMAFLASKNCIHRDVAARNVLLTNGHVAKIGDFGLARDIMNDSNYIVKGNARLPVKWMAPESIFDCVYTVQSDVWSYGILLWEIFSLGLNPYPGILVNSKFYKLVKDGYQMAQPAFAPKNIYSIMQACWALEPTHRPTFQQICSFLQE
Assay: Assay 1: CSF-1R in vitro AlphaScreen assay
Assay type: biochemical
Conditions: phosphorylation of biotinylated pEY substrate; 0.57 nM CSF-1R, 90 μM ATP
Experimental: Assay 1: CSF-1R in Vitro AlphaScreen Assay
Activity of purified CSF-1R was determined in vitro using an Amplified Luminescent Proximity Homogeneous Assay (ALPHA)(Perkin Elmer), which measures phosphorylation of the CSF-1R substrate, biotinylated poly-glutamine-tyrosine peptide (PEY-HTRF CisBio 61GT0BLD), as described below. The His-tagged kinase domain of CSF-1R (i.e., amino acids 568-912, GeneBank ID NM_005211; (see page 25 lines 13-19 of WO 2006/067445 for the sequence listing)) was purified from baculovirus infected SF+Express insect cells (1.4×10^6 cells/ml), French pressed and chromatographed through subsequent Qiagen Ni-NTA, Superflow Mono Q HR 10/10, and Superdex 200 SEC columns. Typical yield was 245 μg/l of cell pellet at >95% purity.
The phosphorylation of the CSF-1R substrate in the presence and absence of the compound of interest was determined. Briefly, 0.57 nM of purified CSF-1R, 5 nM pEY substrate, and compound were preincubated in 1× buffer for 30 minutes at 25° C. Reactions were initiated with addition of 90 μM adenosine triphosphate (ATP) in 1× buffer and incubated at 25° C. for 60 minutes and reactions stopped by addition of 5 μl of detection mix consisting of 136 mM NaCl, 102 mM ethylenediamine tetraacetic acid, 1.65 mg/ml BSA, 40 ug/ml Streptavidin donor beads (Perkin Elmer 6760002), 40 ug/ml pTyr100 acceptor beads (Perkin Elmer 6760620). Plates were incubated at 25° C. for 18 hours in the dark. Phosphorylated substrate was detected by an EnVision plate reader (Perkin Elmer) 680 nm excitation, 520-620 nm emission. Data was graphed and IC50s calculated using Excel Fit (Microsoft).

SMILES	IC50
COc1cc2ncc(C(N)=O)c(Nc3ccc(Cl)c(Cl)c3)c2cc1CCCN [Example 1, 6-(3-Aminopropyl)-4-[(3,4-dichlorophenyl)amino]-7-methoxyquinoline-3-carboxamide]	2 nM
CCOc1cc2ncc(C(N)=O)c(Nc3cc(C)ccc3F)c2cc1C1CCN(C(C)C)CC1 [Example 48, 7-Ethoxy-4-[(2-fluoro-5-methylphenyl)amino]-6-(1-isopropylpiperidin-4-yl)quinoline-3-carboxamide]	3 nM
COc1cc2c(Nc3ccc(F)cc3F)c(C(N)=O)cnc2cc1C1CC1 [Example 28, 7-Cyclopropyl-4-[(2,4-difluorophenyl)amino]-6-methoxyquinoline-3-carboxamide]	14 nM
CCOc1cc2ncc(C(N)=O)c(Nc3ccc(F)cc3F)c2cc1-c1cnn(CC(C)C)c1 [Example 37, 4-[(2,4-Difluorophenyl)amino]-7-ethoxy-6-(1-isobutyl-1H-pyrazol-4-yl)quinoline-3-carboxamide]	440 nM
CCOc1cc2ncc(C(N)=O)c(Nc3ccc(F)cc3F)c2cc1C1CCNCC1 [Example 40, 4-[(2,4-Difluorophenyl)amino]-7-ethoxy-6-piperidin-4-ylquinoline-3-carboxamide]	7 nM
COc1cc2ncc(C(N)=O)c(Nc3ccc(Cl)c(Cl)c3)c2cc1CCCO [Example 15, 4-[(3,4-Dichlorophenyl)amino]-6-(3-hydroxypropyl)-7-methoxyquinoline-3-carboxamide]	2 nM
CCOc1cc2ncc(C(N)=O)c(Nc3ccc(C)cc3F)c2cc1C1CCN(C(C)C)CC1 [Example 47, 7-Ethoxy-4-[(2-fluoro-4-methylphenyl)amino]-6-(1-isopropylpiperidin-4-yl)quinoline-3-carboxamide]	4 nM
CCOc1cc2ncc(C(N)=O)c(Nc3ccc(F)cc3F)c2cc1C1CCN(C)CC1 [Example 43, 4-[(2,4-Difluorophenyl)amino]-7-ethoxy-6-(1-methylpiperidin-4-yl)quinoline-3-carboxamide]	< 3.9 nM
CCOc1cc2ncc(C(N)=O)c(Nc3ccc(F)cc3F)c2cc1C1=CCN(C(=O)OC(C)(C)C)CC1 [Example 38, tert-Butyl 4-{3-(aminocarbonyl)-4-[(2,4-difluorophenyl)amino]-7-ethoxyquinolin-6-yl}-3,6-dihydropyridine-1(2H)-carboxylate]	660 nM
COc1cc2ncc(C(N)=O)c(Nc3ccc(Cl)c(Cl)c3)c2cc1CCCNC1CC1 [Example 11, 6-[3-(Cyclopropylamino)propyl]-4-[(3,4-dichlorophenyl)amino]-7-methoxyquinoline-3-carboxamide]	4 nM
CCOc1cc2ncc(C(N)=O)c(Nc3ccc(F)cc3F)c2cc1C1=CCNCC1 [Example 39, 4-[(2,4-Difluorophenyl)amino]-7-ethoxy-6-(1,2,3,6-tetrahydropyridin-4-yl)quinoline-3-carboxamide]	< 3 nM
CCOc1cc2ncc(C(N)=O)c(Nc3ccc(F)cc3F)c2cc1-c1ccncc1 [Example 35, 4-[(2,4-Difluorophenyl)amino]-7-ethoxy-6-pyridin-4-ylquinoline-3-carboxamide]	61 nM
COc1cc2ncc(C(N)=O)c(Nc3ccc(F)cc3F)c2cc1C1CCN(C(C)=O)CC1 [Example 55, 6-(1-Acetylpiperidin-4-yl)-4-[(2,4-difluorophenyl)amino]-7-methoxyquinoline-3-carboxamide]	15 nM
COc1cc2ncc(C(N)=O)c(Nc3ccc(F)cc3F)c2cc1CCCO [Example 14, 4-[(2,4-Difluorophenyl)amino]-6-(3-hydroxypropyl)-7-methoxyquinoline-3-carboxamide]	8 nM

Other lines, results leading:

IC50	SMILES
7 nM	COc1cc2ncc(C(N)=O)c(Nc3ccc(C)cc3F)c2cc1C1CCN(C)CC1 [Example 49, 4-[(2-Fluoro-4-methylphenyl)amino]-7-methoxy-6-(1-methylpiperidin-4-yl)quinoline-3-carboxamide]
65 nM	COc1cc2ncc(C(N)=O)c(Nc3ccc(F)cc3F)c2cc1C1CC1 [Example 27, 6-Cyclopropyl-4-[(2,4-difluorophenyl)amino]-7-methoxyquinoline-3-carboxamide]
20 nM	COc1cc2ncc(C(N)=O)c(Nc3ccc(F)cc3F)c2cc1CCCN1CCCCC1 [Example 8, 4-[(2,4-Difluorophenyl)amino]-7-methoxy-6-(3-piperidin-1-ylpropyl)quinoline-3-carboxamide]
18 nM	CCc1ccc(Nc2c(C(N)=O)cnc3cc(OC)c(C#CCO)cc23)cc1 [Example 21, 4-[(4-Ethylphenyl)amino]-6-(3-hydroxyprop-1-yn-1-yl)-7-methoxyquinoline-3-carboxamide]
33 nM	CCOc1cc2ncc(C(N)=O)c(Nc3ccc(CC)cc3)c2cc1CCCO [Example 22, 7-Ethoxy-4-[(4-ethylphenyl)amino]-6-(3-hydroxypropyl)quinoline-3-carboxamide]
23 nM	COc1cc2ncc(C(N)=O)c(Nc3ccc(F)cc3F)c2cc1CCCNC1CC1 [Example 10, 6-[3-(Cyclopropylamino)propyl]-4-[(2,4-difluorophenyl)amino]-7-methoxyquinoline-3-carboxamide]
43 nM	CCOc1cc2ncc(C(N)=O)c(Nc3ccc(F)cc3F)c2cc1-c1cccnc1 [Example 31, 4-[(2,4-Difluorophenyl)amino]-7-ethoxy-6-pyridin-3-ylquinoline-3-carboxamide]
6 nM	COc1cc2ncc(C(N)=O)c(Nc3cccc(Cl)c3F)c2cc1C1CCN(C)CC1 [Example 50, 4-[(3-Chloro-2-fluorophenyl)amino]-7-methoxy-6-(1-methylpiperidin-4-yl)quinoline-3-carboxamide]
28 nM	CCOc1cc2ncc(C(N)=O)c(Nc3ccc(F)cc3F)c2cc1-c1cn[nH]c1 [Example 36, 4-[(2,4-Difluorophenyl)amino]-7-ethoxy-6-(1H-pyrazol-4-yl)quinoline-3-carboxamide]
1 nM	COc1cc2ncc(C(N)=O)c(Nc3ccc(Cl)c(Cl)c3)c2cc1CCCN(C)C [Example 13, 4-[(3,4-Dichlorophenyl)amino]-6-[3-(dimethylamino)propyl]-7-methoxyquinoline-3-carboxamide]
76 nM	CCOc1cc2ncc(C(N)=O)c(Nc3ccc(F)cc3F)c2cc1-c1ccc(OC)nc1 [Example 30, 4-[(2,4-Difluorophenyl)amino]-7-ethoxy-6-(6-methoxypyridin-3-yl)quinoline-3-carboxamide]
38 nM	CCc1ccc(Nc2c(C(N)=O)cnc3cc(OC)c(CCCO)cc23)cc1 [Example 20, 4-[(4-Ethylphenyl)amino]-6-(3-hydroxypropyl)-7-methoxyquinoline-3-carboxamide]
9 nM	COc1cc2ncc(C(N)=O)c(Nc3ccc(F)c(Cl)c3)c2cc1CCCO [Example 17, 4-[(3-Chloro-4-fluorophenyl)amino]-6-(3-hydroxypropyl)-7-methoxyquinoline-3-carboxamide]
25 nM	CCOc1cc2ncc(C(N)=O)c(Nc3ccc(F)cc3F)c2cc1-c1cncnc1 [Example 34, 4-[(2,4-Difluorophenyl)amino]-7-ethoxy-6-pyrimidin-5-ylquinoline-3-carboxamide]
4 nM	COc1cc2ncc(C(N)=O)c(Nc3ccc(Cl)c(Cl)c3)c2cc1CCCN1CCCCC1 [Example 12, 4-[(3,4-Dichlorophenyl)amino]-7-methoxy-6-(3-piperidin-1-ylpropyl)quinoline-3-carboxamide]
5 nM	CCOc1cc2ncc(C(N)=O)c(Nc3cccc(Cl)c3F)c2cc1CCCO [Example 3, 4-[(3-Chloro-2-fluorophenyl)amino]-7-ethoxy-6-(3-hydroxypropyl)quinoline-3-carboxamide]
140 nM	COc1cc2ncc(C(N)=O)c(Nc3ccc(Cl)c(Cl)c3)c2cc1C1CC1 [Example 26, 6-Cyclopropyl-4-[(3,4-dichlorophenyl)amino]-7-methoxyquinoline-3-carboxamide]
7 nM	CCOc1cc2ncc(C(N)=O)c(Nc3ccc(F)c(Cl)c3)c2cc1CCCO [Example 25, 4-[(3-Chloro-4-fluorophenyl)amino]-7-ethoxy-6-(3-hydroxypropyl)quinoline-3-carboxamide]
< 3 nM	COc1cc2ncc(C(N)=O)c(Nc3cccc(Cl)c3F)c2cc1CCCO [Example 18, 4-[(3-Chloro-2-fluorophenyl)amino]-6-(3-hydroxypropyl)-7-methoxyquinoline-3-carboxamide]
